Experimental data published in the NIST ThermoML archive (doi:10.1021/acs.jced.8b00537).

Assay: xn = mol fraction of the nth substance listed
Conditions: 100 kPa, Liquid; for viscosity: Capillary tube (Ostwald / Ubbelohde) method; for speed of sound: Frequency=3 MHz, Single path-length method; for mass density: Vibrating tube method

CC[S+](CC)CC.O=S(=O)([N-]S(=O)(=O)C(F)(F)F)C(F)(F)F [triethylsulfonium bis((trifluoromethyl)sulfonyl)imide] + CCCO
Conditions | mass density [kg/m3] | speed of sound [m/s] | viscosity [mPa·s]
293.15 K, x1 = 0.04926 | 910 | 1205.5 | 2.874
293.15 K, x1 = 0.1003 | 996 | 1194.3 | 4.059
293.15 K, x1 = 0.1993 | 1120 | 1195 | 5.998
293.15 K, x1 = 0.3008 | 1209 | 1203.1 | 7.862
293.15 K, x1 = 0.3991 | 1273 | 1212.3 | 10.68
293.15 K, x1 = 0.5023 | 1324 | 1222.2 | 12.28
293.15 K, x1 = 0.5987 | 1363 | 1228.5 | 15.93
293.15 K, x1 = 0.6987 | 1395 | 1235.2 | 19.92
293.15 K, x1 = 0.7947 | 1421 | 1240.6 | 24.95
293.15 K, x1 = 0.903 | 1446 | 1245.8 | 31.64
293.15 K, x1 = 1 | 1465 | 1252.9 | 39.64
298.15 K, x1 = 0.04926 | 906 | 1190.3 | 2.515
298.15 K, x1 = 0.1003 | 992 | 1179.9 | 3.438
298.15 K, x1 = 0.1993 | 1115 | 1181.8 | 5.082
298.15 K, x1 = 0.3008 | 1204 | 1190.5 | 6.704
298.15 K, x1 = 0.3991 | 1268 | 1200.2 | 9.087
298.15 K, x1 = 0.5023 | 1319 | 1210.3 | 10.45
298.15 K, x1 = 0.5987 | 1358 | 1217 | 13.49
298.15 K, x1 = 0.6987 | 1390 | 1223.8 | 16.79
298.15 K, x1 = 0.7947 | 1416 | 1229.4 | 20.88
298.15 K, x1 = 0.903 | 1441 | 1234.8 | 26.25
298.15 K, x1 = 1 | 1460 | 1242.5 | 32.43
303.15 K, x1 = 0.04926 | 901 | 1174.8 | 2.216
303.15 K, x1 = 0.1003 | 987 | 1165.6 | 2.978
303.15 K, x1 = 0.1993 | 1111 | 1168.7 | 4.379
303.15 K, x1 = 0.3008 | 1199 | 1178.1 | 5.78
303.15 K, x1 = 0.3991 | 1263 | 1188.2 | 7.814
303.15 K, x1 = 0.5023 | 1314 | 1198.7 | 8.985
303.15 K, x1 = 0.5987 | 1353 | 1205.5 | 11.56
303.15 K, x1 = 0.6987 | 1386 | 1212.6 | 14.33
303.15 K, x1 = 0.7947 | 1411 | 1218.3 | 17.71
303.15 K, x1 = 0.903 | 1436 | 1223.9 | 22.1
303.15 K, x1 = 1 | 1455 | 1232.4 | 26.92
308.15 K, x1 = 0.04926 | 897 | 1159.5 | 1.962
308.15 K, x1 = 0.1003 | 983 | 1151.3 | 2.609
308.15 K, x1 = 0.1993 | 1106 | 1155.7 | 3.816
308.15 K, x1 = 0.3008 | 1194 | 1165.8 | 5.034
308.15 K, x1 = 0.3991 | 1258 | 1176.3 | 6.787
308.15 K, x1 = 0.5023 | 1310 | 1187.1 | 7.806
308.15 K, x1 = 0.5987 | 1348 | 1194.2 | 10.01
308.15 K, x1 = 0.6987 | 1381 | 1201.5 | 12.35
308.15 K, x1 = 0.7947 | 1407 | 1207.4 | 15.19
308.15 K, x1 = 0.903 | 1431 | 1213.1 | 18.81
308.15 K, x1 = 1 | 1450 | 1222.4 | 22.64
313.15 K, x1 = 0.04926 | 893 | 1144.2 | 1.747
313.15 K, x1 = 0.1003 | 978 | 1137.2 | 2.304
313.15 K, x1 = 0.1993 | 1101 | 1142.8 | 3.354
313.15 K, x1 = 0.3008 | 1190 | 1153.5 | 4.421
313.15 K, x1 = 0.3991 | 1253 | 1164.5 | 5.945
313.15 K, x1 = 0.5023 | 1305 | 1175.6 | 6.842
313.15 K, x1 = 0.5987 | 1343 | 1183 | 8.742
313.15 K, x1 = 0.6987 | 1376 | 1190.5 | 10.75
313.15 K, x1 = 0.7947 | 1402 | 1196.6 | 13.15
313.15 K, x1 = 0.903 | 1426 | 1202.5 | 16.18
313.15 K, x1 = 1 | 1446 | 1212.7 | 19.24
318.15 K, x1 = 0.04926 | – | 1129 | 1.563
318.15 K, x1 = 0.1003 | – | 1123.1 | 2.049
318.15 K, x1 = 0.1993 | – | 1129.9 | 2.972
318.15 K, x1 = 0.3008 | – | 1141.3 | 3.913
318.15 K, x1 = 0.3991 | – | 1152.7 | 5.25
318.15 K, x1 = 0.5023 | – | – | 6.044
318.15 K, x1 = 0.5987 | – | – | 7.698
318.15 K, x1 = 0.6987 | – | – | 9.441
318.15 K, x1 = 0.7947 | – | – | 11.49
318.15 K, x1 = 0.903 | – | – | 14.06
318.15 K, x1 = 1 | – | – | 16.53
